From patent US12465050B2, “Compositions comprising a pyridine carboxylate herbicide and protoporphyrinogen oxidase (protox) inhibitor herbicides” (priority 2018, dated 2025)

How the values were obtained:
Type in all cases: in vivo
[1] = tested on: Viola tricolor (wild pansy); experiment: Greenhouse postemergence herbicidal effect on VIOTR
Text: (§1) Greenhouse Trial Methodology—Evaluation of Postemergence Herbicidal Effect
(§2) Seeds of the desired test plant species were planted in a 90:10% v/v (volume/volume) mixture of PRO-MIX® BX (Premier Tech Horticulture, Quakertown, Pa., USA) and PROFILE® GREENS GRADE™ (Profile Products LLC, Buffalo Grove, Ill., USA) planting mixture, which typically has a pH of 5.2 to 6.2 and an organic matter content of at least 50 percent, in plastic pots with a surface area of 103.2 square centimeters (cm^2). In some aspects or embodiments, to help ensure good germination and healthy plants, a fungicide treatment and/or other chemical or physical treatment was applied. The plants were grown for 7-36 days (d) in a greenhouse with an approximate 14-hour (h) photoperiod which was maintained at about 23° C. during the day and 22° C. during the night. Nutrients and water were added on a regular basis and supplemental lighting was provided with overhead metal halide 1000-Watt lamps as necessary. The plants were employed for testing when they reached the second or third true leaf stage.
(§3) Emulsifiable concentrates of each of each pyridine carboxylate herbicide (Compound A or Compound B) were prepared at 100 grams acid equivalent per liter (g ae/L). The emulsifiable concentrates also included a safener, cloquintocet mexyl, at 120 grams active ingredient per liter (g ai/L). An aliquot of each emulsifiable concentrate was placed in a 25 mL glass vial and diluted with an aqueous mixture of 1.25% (v/v) ACTIROB® B esterified rapeseed oil (Bayer Crop Science, Research Triangle Park, N.C., USA) or MSO® Concentrate with LECI-TECH® methylated soybean oil (Loveland Products, Loveland, Colo., USA) to obtain concentrated stock solutions at the highest application rate for each herbicide, based upon a 12 milliliter (mL) application volume at a rate of 187 liters per hectare (L/ha). The concentrated stock solutions were further diluted with an aqueous mixture of 1.25% v/v ACTIROB® B or MSO® Concentrate with LECI-TECH® to obtain stock solutions at reduced application rates for each herbicide. Spray solutions of the herbicide combinations (Compound A or Compound B plus PROTOX inhibitor herbicide) were prepared by adding weighed amounts or aliquots of the PROTOX inhibitor herbicides to the stock solutions of Compound A or Compound B to form 12-mL spray solutions in two-way combinations.
(§4) The spray solutions were applied to the plant material with an overhead Mandel track sprayer equipped with 8002E nozzles calibrated to deliver 187 L/ha over an application area of 0.503 square meters (m^2) at a spray height of 18 inches (43 centimeters (cm)) above the average plant canopy. Control plants were sprayed in the same manner with the solvent blank. All pyridine carboxylate herbicide (component a) application rates are given as “g ae/ha” and all PROTOX inhibitor herbicide (component b) application rates are given as “g ai/ha.”
(§5) The treated plants and control plants were placed in a greenhouse as described above and watered by sub-irrigation to prevent wash-off of the test compounds. After 20-22 d, the condition of the test plants as compared with that of the control plants was determined visually and scored on a scale of 0 to 100 percent where 0 corresponds to no injury and 100 corresponds to complete kill.

[2] = tested on: Cirsium arvense (Canadian thistle); experiment: Greenhouse postemergence herbicidal effect on CIRAR
Text: as §1, §2, §3, §4, §5

Kochia scoparia (kochia) = experiment: Greenhouse postemergence herbicidal effect on KCHSC
Text: as §1, §2, §3, §4, §5

[3] = tested on: Triticum aestivum (spring wheat); experiment: Greenhouse postemergence phytotoxicity on crop TRZAS
Text: as §1, §2, §3, §4, §5

[4] = tested on: Polygonum convolvulus (wild buckwheat); experiment: Greenhouse postemergence herbicidal effect on POLCO
Text: as §1, §2, §3, §4, §5

[5] = tested on: Salsola kali (Russian thistle); experiment: Greenhouse postemergence herbicidal effect on SASKR
Text: as §1, §2, §3, §4, §5

[6] = tested on: Hordeum vulgare (spring barley); experiment: Greenhouse postemergence phytotoxicity on crop HORVS
Text: as §1, §2, §3, §4, §5

[7] = tested on: Sinapis arvensis (wild mustard); experiment: Greenhouse postemergence herbicidal effect on SINAR
Text: as §1, §2, §3, §4, §5

[8] = tested on: Brassica napus (winter rape); experiment: Greenhouse postemergence herbicidal effect on BRSNW
Text: as §1, §2, §3, §4, §5

[9] = tested on: Matricaria chamomilla (wild chamomile); experiment: Greenhouse postemergence herbicidal effect on MATCH
Text: as §1, §2, §3, §4, §5

[10] = tested on: Lamium purpureum (purple deadnettle); experiment: Greenhouse postemergence herbicidal effect on LAMPU; conditions: Compound A 0, Oxyfluorfen 560 g/ha
Text: as §1, §2
as §3, with “combinations. […]” for “combinations.”
as §5

[11] = tested on: Capsella bursa-pastoris (shepherd's purse); experiment: Greenhouse postemergence herbicidal effect on CAPBP; conditions: Compound A 0, Oxyfluorfen 560 g/ha
Text: as §1, §2
as §3, with “combinations. […]” for “combinations.”
as §5

[12] = tested on: Cyanus segetum (cornflower); experiment: Greenhouse postemergence herbicidal effect on CENCY; conditions: Compound A 0, Oxyfluorfen 560 g/ha
Text: as §1, §2
as §3, with “combinations. […]” for “combinations.”
as §5

[13] = tested on: Viola arvensis (field violet); experiment: Greenhouse postemergence herbicidal effect on VIOAR; conditions: Compound A 0, Oxyfluorfen 560 g/ha
Text: as §1, §2
as §3, with “combinations. […]” for “combinations.”
as §5

[14] = tested on: Stellaria media (chickweed); experiment: Greenhouse postemergence herbicidal effect on STEME; conditions: Compound A 0, Oxyfluorfen 560 g/ha
Text: as §1, §2
as §3, with “combinations. […]” for “combinations.”
as §5

[15] = tested on: Matricaria inodora (scentless chamomile); experiment: Greenhouse postemergence herbicidal effect on MATIN; conditions: Compound A 0, Oxyfluorfen 560 g/ha
Text: as §1, §2
as §3, with “combinations. […]” for “combinations.”
as §5

[16] = tested on: Anthemis arvensis (corn chamomile); experiment: Greenhouse postemergence herbicidal effect on ANTAR; conditions: Compound A 0, Oxyfluorfen 560 g/ha
Text: as §1, §2
as §3, with “combinations. […]” for “combinations.”
as §5

[17] = tested on: Matricaria discoidea (pineapple weed); experiment: Greenhouse postemergence herbicidal effect on MATMT; conditions: Compound A 0, Oxyfluorfen 560 g/ha
Text: as §1, §2
as §3, with “combinations. […]” for “combinations.”
as §5

[18] = tested on: Veronica persica (Persian speedwell); experiment: Greenhouse postemergence herbicidal effect on VERPE; conditions: Compound A 0, Oxyfluorfen 560 g/ha
Text: as §1, §2
as §3, with “combinations. […]” for “combinations.”
as §5

[19] = tested on: Papaver rhoeas (common poppy); experiment: Greenhouse postemergence herbicidal effect on PAPRH; conditions: Compound A 0, Oxyfluorfen 560 g/ha
Text: as §1, §2
as §3, with “combinations. […]” for “combinations.”
as §5

[20] = tested on: Veronica hederifolia (ivy-leaved speedwell); experiment: Greenhouse postemergence herbicidal effect on VERHE; conditions: Compound A 0, Oxyfluorfen 560 g/ha
Text: as §1, §2
as §3, with “combinations. […]” for “combinations.”
as §5

[21] = tested on: Papaver rhoeas (herbicide-resistant poppy); experiment: Greenhouse postemergence herbicidal effect on PAPRH-RES; conditions: Compound A 0, Oxyfluorfen 560 g/ha
Text: as §1, §2
as §3, with “combinations. […]” for “combinations.”
as §5

[22] = tested on: Triticum aestivum (winter wheat); experiment: Greenhouse postemergence phytotoxicity on crop TRZAW; conditions: Compound A 0, Oxyfluorfen 560 g/ha
Text: as §1, §2
as §3, with “combinations. […]” for “combinations.”
as §5

[23] = tested on: Hordeum vulgare (winter barley); experiment: Greenhouse postemergence phytotoxicity on crop HORVW; conditions: Compound A 0, Oxyfluorfen 560 g/ha
Text: as §1, §2
as §3, with “combinations. […]” for “combinations.”
as §5

[24] = tested on: Brassica napus (spring rape); experiment: Greenhouse postemergence herbicidal effect on BRSNN
Text: as §1, §2, §3, §4, §5

[25] = tested on: Chenopodium album L. (common lambsquarters); experiment: Greenhouse postemergence herbicidal effect on CHEAL
Text: as §1, §2, §3, §4, §5

[26] = tested on: Amaranthus retroflexus (pigweed); experiment: Greenhouse postemergence herbicidal effect on AMARE
Text: as §1, §2, §3, §4, §5

[27] = tested on: Rumex obtusifolius (broad-leaf dock); experiment: Greenhouse postemergence herbicidal effect on RUMOB; conditions: Compound A 0, Saflufenacil 11.2 g/ha
Text: as §1, §2, §3, §4, §5

[28] = tested on: Setaria faberi (giant foxtail); experiment: Greenhouse postemergence herbicidal effect on SETFA
Text: as §1, §2, §3, §4, §5

[29] = tested on: Abutilon theophrasti (velvetleaf); experiment: Greenhouse postemergence herbicidal effect on ABUTH; conditions: Compound A 0, Saflufenacil 11.2 g/ha
Text: as §1, §2
(§6) Emulsifiable concentrates of each of each pyridine carboxylate herbicide (Compound A or Compound B) were prepared at 100 grams acid equivalent per liter (g ae/L). The emulsifiable concentrates also included a safener, cloquintocet mexyl, at 120 grams active ingredient per liter (g ai/L). […]
as §5

[30] = tested on: Sorghum vulgare (sorghum); experiment: Greenhouse postemergence herbicidal effect on SORVU; conditions: Compound A 0, Saflufenacil 11.2 g/ha
Text: as §1, §2, §6, §5

[31] = tested on: Cyperus esculentus (nutsedge); experiment: Greenhouse postemergence herbicidal effect on CYPES; conditions: Compound A 0, Saflufenacil 11.2 g/ha
Text: as §1, §2, §6, §5

Zea mays (maize) = experiment: Greenhouse postemergence phytotoxicity on crop ZEAMX; conditions: Compound A 0, Saflufenacil 11.2 g/ha
Text: as §1, §2, §6, §5

[32] = Compound A 0, Oxyfluorfen 560 g/ha
[33] = Compound A 0, Pyraclonil 42.5 g/ha
[34] = Compound A 0, Pyraflufen-ethyl 6 g/ha
[35] = Compound B 0, Saflufenacil 1 g/ha
[36] = Compound A 0, Saflufenacil 11.2 g/ha

CCOc1cc(Oc2ccc(C(F)(F)F)cc2Cl)ccc1[N+](=O)[O-] [Oxyfluorfen, 2-chloro-1-(3-ethoxy-4-nitrophenoxy)-4-(trifluoromethyl)benzene, reference compound]
% visual injury, Obs [1, 32]: 60%
% visual injury, Obs [2, 32]: 35%
% visual injury, Obs (Kochia scoparia (kochia); [32]): 55%
% visual injury, Obs [3, 32]: 23%
% visual injury, Obs [4, 32]: 80%
% visual injury, Obs [5, 32]: 60%
% visual injury, Obs [6, 32]: 70%
% visual injury, Obs [7, 32]: 20%
% visual injury, Obs [8, 32]: 20%
% visual injury, Obs [9, 32]: 25%
% visual injury, Obs [10]: 10%
% visual injury, Obs [11]: 0%
% visual injury, Obs [12]: 15%
% visual injury, Obs [13]: 40%
% visual injury, Obs [14]: 0%
% visual injury, Obs [15]: 0%
% visual injury, Obs [16]: 5%
% visual injury, Obs [17]: 5%
% visual injury, Obs [18]: 20%
% visual injury, Obs [19]: 70%
% visual injury, Obs [20]: 5%
% visual injury, Obs [21]: 45%
% visual injury, Obs [22]: 20%
% visual injury, Obs [23]: 50%

C#CCN(C)c1c(C#N)cnn1-c1nn2c(c1Cl)CCCC2 [Pyraclonil, 1-(3-chloro-4,5,6,7-tetrahydropyrazolo[1,5-a]pyridin-2-yl)-5-[methyl-2-propynylamino]-1H-pyrazole-4-carbonitrile, reference compound]
% visual injury, Obs [24, 33]: 23%
% visual injury, Obs (Kochia scoparia (kochia); [33]): 15%
% visual injury, Obs [3, 33]: 3%
% visual injury, Obs [4, 33]: 20%
% visual injury, Obs [5, 33]: 78%
% visual injury, Obs [6, 33]: 28%
% visual injury, Obs [7, 33]: 15%
% visual injury, Obs [25, 33]: 15%

CCOC(=O)COc1cc(-c2nn(C)c(OC(F)F)c2Cl)c(F)cc1Cl [Pyraflufen-ethyl, ethyl 2-chloro-5-[4-chloro-5-(difluoromethoxy)-1-methyl-1H-pyrazol-3-yl]-4-fluorophenoxyacetate, reference compound]
% visual injury, Obs [2, 34]: 10%
% visual injury, Obs (Kochia scoparia (kochia); [34]): 0%
% visual injury, Obs [26, 34]: 18%
% visual injury, Obs [3, 34]: 0%
% visual injury, Obs [4, 34]: 0%
% visual injury, Obs [5, 34]: 5%
% visual injury, Obs [6, 34]: 0%
% visual injury, Obs [7, 34]: 0%
% visual injury, Obs [25, 34]: 5%
% visual injury, Obs [8, 34]: 0%
% visual injury, Obs [9, 34]: 0%

CC(C)N(C)S(=O)(=O)NC(=O)c1cc(-n2c(=O)cc(C(F)(F)F)n(C)c2=O)c(F)cc1Cl [Saflufenacil, 2-chloro-5-[3,6-dihydro-3-methyl-2,6-dioxo-4-(trifluoromethyl)-1(2H)-pyrimidinyl]-4-fluoro-N-[[methyl(1-methylethyl)-amino]sulfonyl]benzamide, reference compound]
% visual injury, Obs [27]: 100%
% visual injury, Obs [1, 35]: 55%
% visual injury, Obs [2, 35]: 80%
% visual injury, Obs [24, 36]: 90%
% visual injury, Obs [28, 36]: 53%
% visual injury, Obs [28, 35]: 13%
% visual injury, Obs [29]: 98%
% visual injury, Obs [30]: 33%
% visual injury, Obs [31]: 28%
% visual injury, Obs [26, 36]: 100%
% visual injury, Obs [3, 36]: 10%
% visual injury, Obs (Zea mays (maize)): 45%
